Blank lines part the entries; values can stand above or below the compound they belong to.
Legend:
[1] = system: IR exon 11 alternative splicing in DM2 patient-derived fibroblasts; test: Rescue of IR exon 11 splicing via RT-PCR in DM2 fibroblasts; type: cell-based
Protocol: (§1) Cell lines and cell culture: Compounds were tested in two cell lines: (i) DM2 patient-derived fibroblasts (generous gift from University of Florida, Center for NeuroGenetics) and (ii) fibroblasts from a healthy donor (wild-type; WT GM07492; Coriell Institute). Cells were maintained at 37° ° C. with 5% CO2. DM2 fibroblasts were cultured in DMEM/high glucose (HyClone) supplemented with 20% FBS (Sigma) and 1% Antibiotic-Antimycotic solution (Corning). Wild-type fibroblasts were cultured in MEM (Corning) supplemented with 10% FBS, 1% Glutagro (Corning), and 1% Antibiotic-Antimycotic solution.
Evaluation of pre-mRNA splicing via RT-PCR: Pre-mRNA splicing was analyzed as previously described.^10 Briefly, cells were grown in 6-well plates and treated with the desired compound in growth medium at ˜40% confluency. After 48 h, the cells were lysed, and total RNA was harvested using a Zymo Quick RNA Miniprep Kit. Approximately 1 μg of total RNA was reverse transcribed using a qScript cDNA synthesis kit (20 μL of total reaction volume, Quanta BioSciences); 2 μL of the RT reaction was used for PCR using GoTaq DNA polymerase (Promega). RT-PCR products were observed after 35 cycles of 95° C. for 30 s, 58° C. for 30s, 72 °C for 1 min, and a final extension at 72° C. for 5 min. Products were separated on a 2% agarose gel (110 V for 1 h in 13TBE buffer), visualized by staining with ethidium bromide, and imaged using a Typhoon 9410 variable mode imager. Gels were quantified using ImageJ. Percent rescue was calculated by dividing the difference between treated and untreated DM2 samples by the difference between untreated DM2 and WT samples (Equation 2).

[2] = system: DM2 patient-derived fibroblasts; test: Cell viability by CellTiter-Glo; type: cell-based; conditions: for toxicity in DM2 patient-derived fibroblasts: at 5 μM; for toxicity as stated in legend of FIG. 3C: DM2 fibroblasts
Protocol: as §1
Evaluation of cell viability: Compound toxicity in DM2 fibroblasts was evaluated using a CellTiter-Glo Kit (Promega) as described in the manufacturer's protocol. Briefly, after 48 h treatment in 96-wells plates, 100 μL of the CellTiter-Glo reagent was added to each well. The plate was then incubated at room temperature for 10 min, and luminescence was measured using BioTek FLX-800 luminescence plate reader (n=6 replicates; 1 independent experiment).

[3] = system: r(GACAGCCUGCUGUC)2 duplex, RNA containing a single 2×2 CU/UC internal loop; test: NMR spectroscopy (WaterLOGSY, 1D) of binding to RNA with one 2×2 CU/UC internal loop
Description: The binding 1-7 an RNA containing a single 2×2 CU/UC was further studied by NMR spectroscopy. […] Aromatic protons of the unbound RNA were assigned via a 2D NOESY spectrum (Figure S7).
NMR samples preparation: A self-complementary RNA construct, r(5′-GACAGCCUGCUGUC-3′), SEQ ID NO:12, was purchased from GE Healthcare Dharmacon, Inc., deprotected according to the manufacturer's recommended protocol, and desalted with PD-10 columns (GE Healthcare, cat: 17-0851-01) also per the manufacturer's protocol. RNA samples were dissolved in NMR Buffer [10 mM KH2PO4/K2HPO4 and 0.05 mM EDTA (pH 6.0)] and folded by heating to 95° C. for 3 min and slowly cooling to room temperature.
NMR spectroscopy: NMR spectra were acquired at 25° C. on Bruker Avance III 600 and 700 MHZ spectrometers equipped with cryoprobes. 1D NMR spectra were acquired on samples containing 100 μM of RNA alone in 100% D20. Compounds 38, 40, 41, and 42 were each titrated into separate samples at 0.5, 1.0, 1.5, and 2.0 compound: RNA molar ratios. WaterLOGSY (water-ligand observed via gradient spectroscopy) spectra^29 were acquired on samples containing 300 μM of each compound alone or in the presence of 15 μM of RNA at a 20:1 compound:RNA ratio in H2O, to which D2O was added to 5% by volume. WaterLOGSY spectra were phased to give negative NOEs for non-binders. […]

[4] = system: r(CCUG)12-MBNL1 complex; test: TR-FRET assay, disruption of pre-formed r(CCUG)12-MBNL1 complex; type: biochemical; conditions: in vitro, read-out: IC50 for disrupting an r(CCUG)12-MBNL1 complex
Description: Of the 44 hits, 38 contained a similar substituted N2-phenylquinazoline-2,4-diamine core, while the other hits contained benzimidazoles and indazoles (Figure S2). Importantly, these 44 compounds are drug-like as they have similar physicochemical properties to the rest of the library and to known-drugs in Drug Bank (FIG. 2A). On average, the 44 hit compounds have a molecular weight of 327±35 g/mol, a cLogP of 3.2±0.9. TPSA of 76±15 Å, and 2.5±0.9 hydrogen bond donors. The in vitro potencies (IC50s) of the 44 compounds were then measured in the TR-FRET assay, affording seven compounds (1-7) with IC50s <50 μM (highlighted in red in FIGS. 2B & 2C).
In vitro IC50 measurements: IC50 measurements for disruption of r(CCUG)12-MBNL1 complex was completed using a previously reported TR-FRET assay with minor modifications.^23, 24 Briefly, 5′-biotinylated r(CCUG)12 (SEQ ID NO: 15) was folded in 1× Folding Buffer (20 mM HEPES, pH 7.5, 110 mM KCl, and 10 mM NaCl) at 60° C. for 5 min then cooled to room temperature. The buffer was adjusted to 1× Assay Buffer (20 mM HEPES, pH 7.5, 110 mM KCl, 10 mM NaCl, 2 mM MgCl2, 2 mM CaCl2), 5 mM DTT. 0.1% BSA, and 0.5% Tween-20).
Next, MBNL1-His6 was added, and the samples were incubated at room temperature for 15 min. […] The samples were incubated for 30 min at room temperature and added to a white 384-well plate, where TR-FRET was measured on a Molecular Devices SpectraMax M5 plate reader using an excitation wavelength of 345-nm and a 420-nm cutoff. The ratios of fluorescence intensity at 545 and 665 nm were calculated, and ratios in the absence of a compound and in the absence of RNA were used to calculate percent disruption. […]
[formula] • where y is ratio of fluorescence intensities at 545 nm and 665 nm (F545/F665), x is the concentration of a compound, B is F545/F665 value at max FRET effect (solution has RNA and protein but no compound added); A is F545/F665 value at min FRET effect (solution has antibodies but no RNA, protein, or compound); and the IC50 is the concentration of a compound where half of the protein is displaced by a compound.

Compound: Cc1ccc2nc(Nc3ccc4nc(NCC(C)(C)O)sc4c3)nc(NCCCO)c2c1 [Compound 78, 3-((2-((2-((2-hydroxy-2-methylpropyl)amino)benzo[d]thiazol-6-yl)amino)-6-methylquinazolin-4-yl)amino)propan-1-ol]
- improvement of IR splicing ([1]; at 5 μM): significantly improved IR splicing
- toxicity in DM2 patient-derived fibroblasts [2]: no toxicity

Compound: Cc1ccc2nc(Nc3ccc4nc(NCC(C)C)sc4c3)nc(NCCCO)c2c1 [Compound 73, 3-((2-((2-(isobutylamino)benzo[d]thiazol-6-yl)amino)-6-methylquinazolin-4-yl)amino)propan-1-ol]
- toxicity in DM2 patient-derived fibroblasts [2]: significant toxicity

Compound: Cc1ccc2nc(Nc3ccc4nc(NCCN(C)C)sc4c3)nc(NCCCO)c2c1 [Compound 79, 3-((2-((2-((2-(dimethylamino)ethyl)amino)benzo[d]thiazol-6-yl)amino)-6-methylquinazolin-4-yl)amino)propan-1-ol]
- rescue of IR splicing ([1]; any concentration studied): did not significantly rescue splicing
- toxicity as stated in legend of FIG. 3C [2]: non-toxic
- toxicity in DM2 patient-derived fibroblasts [2]: no toxicity

Compound: Cc1ccc2nc(Nc3ccc4nc(N5CCOCC5)sc4c3)nc(NCCCO)c2c1 [Compound 72, 3-((6-methyl-2-((2-morpholinobenzo[d]thiazol-6-yl)amino)quinazolin-4-yl)amino)propan-1-ol]
- toxicity in DM2 patient-derived fibroblasts [2]: significant toxicity

- shifts of RNA H6 and H8 proton resonances in 1D NMR, indicating binding ([3]; compound added to RNA with one 2×2 CU/UC internal loop): Significant shifts in resonances
- binding to the RNA by waterLOGSY spectra ([3]; positive phase signals in the presence of RNA): bound to the RNA
- IC50 [4]: 48.2 ± 0.07 µM
Compound: OCCCNc1nc(Nc2ccc3c(c2)OCCO3)nc2ccccc12 [Compound 7, 3-((2-((2,3-dihydrobenzo[b][1,4]dioxin-6-yl)amino)quinazolin-4-yl)amino)propan-1-ol]
- rescue of IR splicing ([1]; at 1 μM dose, p=0.026): 12±5
- rescue of IR exon 11 splicing ([1]; at 5 μM): ~50%

Compound: Cc1ccc2nc(Nc3ccc4nc(N5CCN(C)CC5)sc4c3)nc(NCCCO)c2c1 [Compound 82, 3-((6-methyl-2-((2-(4-methylpiperazin-1-yl)benzo[d]thiazol-6-yl)amino)quinazolin-4-yl)amino)propan-1-ol]
- toxicity in DM2 patient-derived fibroblasts [2]: significant toxicity

Compound: Cc1ccc2nc(Nc3ccc4nc(N(CCO)CCO)sc4c3)nc(NCCCO)c2c1 [Compound 80, 2,2′-((6-((4-((3-hydroxypropyl)amino)-6-methylquinazolin-2-yl)amino)benzo[d]thiazol-2-yl)azanediyl)bis(ethan-1-ol)]
- toxicity as stated in legend of FIG. 3C [2]: non-toxic

- IC50 [4]: 12.7 ± 0.2 µM
Compound: Cc1ccc2nc(Nc3ccc4c(c3)OCCO4)nc(NCCCO)c2c1 [Compound 58, 3-((2-((2,3-dihydrobenzo[b][1,4]dioxin-6-yl)amino)-6-methylquinazolin-4-yl)amino)propan-1-ol]

Compound: Cc1ccc2nc(Nc3ccc4nc(NCCN5CCOCC5)sc4c3)nc(NCCCO)c2c1 [Compound 74, 3-((6-methyl-2-((2-((2-morpholinoethyl)amino)benzo[d]thiazol-6-yl)amino)quinazolin-4-yl)amino)propan-1-ol]
- toxicity in DM2 patient-derived fibroblasts [2]: significant toxicity

Compound: Cc1ccc2nc(Nc3ccc4nc(NC5CCN(Cc6ccccc6)CC5)sc4c3)nc(NCCCO)c2c1 [Compound 71, 3-((2-((2-((1-benzylpiperidin-4-yl)amino)benzo[d]thiazol-6-yl)amino)-6-methylquinazolin-4-yl)amino)propan-1-ol]
- toxicity in DM2 patient-derived fibroblasts [2]: significant toxicity

Source: US20240262817A1, “QUINAZOLINE DERIVATIVES TARGETING R(CCUG) REPEATS IN MYOTONIC DYSTROPHY TYPE 2” (University of Florida Research Foundation, Incorporated, priority 2021, published 2024)
